Assay: molar heat capacity at constant pressure
Settings: 101.33 kPa, Small sample (50 mg) DSC

CCCCCC[n+]1cccc2ccccc21.O=S(=O)([N-]S(=O)(=O)C(F)(F)F)C(F)(F)F [1-hexylquinolinium bis(trifluoromethylsulfonyl)amide]
Settings	molar heat capacity at constant pressure [J/K/mol]
283.12 K, Crystal	420.81
283.72 K, Crystal	421.99
284.32 K, Crystal	423.19
284.92 K, Crystal	424.39
285.52 K, Crystal	425.58
286.12 K, Crystal	426.78
286.72 K, Crystal	427.94
287.32 K, Crystal	429.07
287.92 K, Crystal	430.21
288.52 K, Crystal	431.37
289.12 K, Crystal	432.53
289.72 K, Crystal	433.71
290.32 K, Crystal	434.96
290.92 K, Crystal	436.29
291.52 K, Crystal	437.63
292.12 K, Crystal	439.04
292.72 K, Crystal	440.54
293.32 K, Crystal	442.04
293.92 K, Crystal	443.6
294.52 K, Crystal	445.19
295.12 K, Crystal	446.81
295.72 K, Crystal	448.46
296.32 K, Crystal	450.18
296.92 K, Crystal	451.92
297.52 K, Crystal	453.71
298.12 K, Crystal	455.57
298.72 K, Crystal	457.56
299.32 K, Crystal	459.55
299.92 K, Crystal	461.52
300.52 K, Crystal	463.69
301.12 K, Crystal	465.97
301.72 K, Crystal	468.26
302.32 K, Crystal	470.81
302.92 K, Crystal	473.57
303.52 K, Crystal	476.39
304.12 K, Crystal	479.52
304.73 K, Crystal	483.2
305.33 K, Crystal	487.13
305.93 K, Crystal	491.57
306.53 K, Crystal	497.37
307.13 K, Crystal	504.13
307.72 K, Crystal	510.47
308.32 K, Crystal	518.68
308.92 K, Crystal	531.59
309.52 K, Crystal	546.05
310.12 K, Crystal	573.74
310.72 K, Crystal	653.81
311.32 K, Crystal	795.64
311.92 K, Crystal	921.44
312.51 K, Crystal	1266.8
313.09 K, Crystal	2288.5
313.66 K, Crystal	3477.3
314.23 K, Crystal	4856
314.8 K, Crystal	6301.5
315.37 K, Crystal	7631.8
315.94 K, Crystal	9002.3
316.54 K, Crystal	9157.6
317.17 K, Liquid	7971.7
317.8 K, Liquid	6765.5
318.43 K, Liquid	5315.4
319.06 K, Liquid	3937.3
319.69 K, Liquid	2716.7
320.31 K, Liquid	1646.2
320.92 K, Liquid	1124.2
321.52 K, Liquid	783.96
322.12 K, Liquid	605.73
322.72 K, Liquid	578.47
323.33 K, Liquid	579.09
323.93 K, Liquid	579.53
324.53 K, Liquid	579.5
325.13 K, Liquid	579.81

From the NIST ThermoML archive (doi:10.1016/j.jct.2010.12.021)
